Test results reported in article PMC10386914 (Clinical Pharmacokinetics, 2023).

Assay: Grade ≥3 toxicity
Assay type: in vivo, human
Details: standard dose; study period

## Cc1ccc(Nc2nccc(N(C)c3ccc4c(C)n(C)nc4c3)n2)cc1S(N)(=O)=O [Pazopanib]
  patients with grade ≥3 adverse events, wildtype patients: 29%
